Entries after “also recorded” stand apart in the source; their conditions may differ.
What was measured:
[1] = type: in vivo; details: piglets, oral PM 100 mg/kg
Protocol: Neonatal pigs spontaneously delivered from sows were confirmed to be negative for TGEV by RT-qPCR and enzyme-linked immunosorbent assay. For the cytotoxicity and pharmacokinetic parameters of the PM, three piglets were orally administered PM (100 mg/kg), and the serum was collected by venipuncture at 0, 1, 2, 4, 6, 8, 10, 12, 16, and 24 h after oral administration of PM for cytotoxicity assays and pharmacokinetic parameter determination. For antiviral animal experiments, piglets were randomly separated into four groups: the mock group ([3]), TGEV group ([3]), TGEV-PM-therapy group ([3]), and TGEV-PM-prevention group ([3]). For the TGEV group, neonatal pigs were orally administered 1.245 × 10^8 PFU TGEV Miller for 24 h. In addition, piglets in the TGEV-PM therapy group were orally infected with 1.245 × 10^8 PFU TGEV Miller and then treated with PM (100 mg/kg). […] The body weights of all piglets were recorded, and anal swabs were collected every 12 h. […]
Fig. S9. […] (A) The serum of piglets orally administered PM were collected at 1, 2, 4, 6, 8, 10, 12, 16 and 24 hours respectively and AST, CK and CREA level in those sera were measured by biochemical parameters. (B) PM concentrations at indicated times in piglets were determined by ICP-MS. […]

ATG14 = ATG14 expression in ST cells (western blot); type: cell-based, porcine; details: Fig. S8A, PM 10 mM, PRCV 0.1 MOI, 16 h
Protocol: Fig 7 PM degrades APN expression via activating PIK3C3-mediated autophagy. (A) Graphical representation for autophagy and the targets of different autophagy inhibitors. (B) ST cells were treated with PM (10 mM) in the presence and absence of 3-MA (20 mM), SBI0206965 (20 µM), and 3BDO (30 µM) for 16 h, and the APN expression was detected by western blot. (C) ST cells were treated with PM (10 mM) in the presence and absence of 3-MA (20 mM) for 16 h, and the APN, PIK3C3, ATG14, BECN1, P62, and LC3 were measured by western blot. (D) ST cells were transfected with PIK3C3 siRNA-1, PIK3C3 siRNA-2, PIK3C3 siRNA-3, PIK3C3 siRNA-4, and NC siRNA for 24 h, the PIK3C3 expression was detected by western blot. […] The APN, PIK3C3, ATG14, BECN1, P62, and LC3 were detected by western blot. […] (G) PIK3C3 was detected by western blot in WT ST cells and PIK3C3 KO ST cells. (H) WT ST cells and PIK3C3 KO ST cells were treated with PM (10 mM) for 16 h and then the APN, PIK3C3, ATG14, BECN1, P62, and LC3 were detected by western blot. […] The APN, PIK3C3, P62, and LC3 were detected by western blot. All western blot results were calculated by Image J. All experiments were performed in triplicate.
Fig. S8. […] Then the APN, PIK3C3, ATG14, BECN1, P62, PRCV N and LC3 were detected by western blot (A), and viral titers and PRCV N mRNA level were determined by TCID50 (B) and RT-qPCR (C) . […]

PRCV = PRCV entry assay in ST cells; type: cell-based, porcine respiratory coronavirus; details: PM 10 mM, PRCV 0.1 MOI, 1 or 2 h at 37°C, RT-qPCR and IFA
Protocol: Fig. S4. […] (A and B) Entry assay. ST cells were infected with 0.1
MOI PRCV for 1 h at 4 °C, and were then treated with PM (10 mΜ) or H2O for 1 h or 2 h at 37 °C. The cells samples were washed using sodium citrate buffer and detected by RT-qPCR (A) and IFA (B), Scale bar: 50 μm /5 μm. Results are presented as mean ± SD of data from three independent experiments ***, (also on this page, place not known: 0.0 0.5 1.0 1.5 Relative genomic RNA level *** *** DAPIPRCV PM H2O 1h 2h 1 2 3 4 5 H2O PM Viral load (log copies/ul) *** *** 1h 2h CollectedPM/H2O) […]

## [K+].[K+].[O]=[Mo](=[O])([O-])[O-] [PM, potassium molybdate]
[1]
  safety of the dose: safe concentration
[1]; serum at 0-24 h
  aminotransferase (AST), creatine kinase (CK) and creatinine (CERA) levels: did not affect
ATG14; PIK3C3 KO ST cells
  ATG14 level, western blot, relative to WT without PM (=1): 1.03
ATG14; WT ST cells
  ATG14 level, western blot, relative to WT without PM (=1): 1.07
PRCV
  PRCV entry (internalization): blocks PRCV internalization; also recorded: The same results were also demonstrated for PRCV infection
